From US20220056043A1, “NITROGEN-CONTAINING FUSED CYCLIC COMPOUND, PREPARATION METHOD THEREFOR AND USE THEREOF” (SICHUAN KELUN-BIOTECH BIOPHARMACEUTICAL CO., LTD., priority 2019, published 2022) come the findings set out here.

pEC50: −log10 of the molar value.

The term pEC50 denotes the EC50 on a negative log10 scale, so that one unit is a factor of ten. High values mean a low EC50, low ones a high EC50.

In the experiment the target is T1, hTLR7 (Homo sapiens, UniProt Q9NYK1).
T1 construct: host or cells: HEK-hTLR7-NF-κB-Luciferase cells
T1 sequence (Q9NYK1 27-1049): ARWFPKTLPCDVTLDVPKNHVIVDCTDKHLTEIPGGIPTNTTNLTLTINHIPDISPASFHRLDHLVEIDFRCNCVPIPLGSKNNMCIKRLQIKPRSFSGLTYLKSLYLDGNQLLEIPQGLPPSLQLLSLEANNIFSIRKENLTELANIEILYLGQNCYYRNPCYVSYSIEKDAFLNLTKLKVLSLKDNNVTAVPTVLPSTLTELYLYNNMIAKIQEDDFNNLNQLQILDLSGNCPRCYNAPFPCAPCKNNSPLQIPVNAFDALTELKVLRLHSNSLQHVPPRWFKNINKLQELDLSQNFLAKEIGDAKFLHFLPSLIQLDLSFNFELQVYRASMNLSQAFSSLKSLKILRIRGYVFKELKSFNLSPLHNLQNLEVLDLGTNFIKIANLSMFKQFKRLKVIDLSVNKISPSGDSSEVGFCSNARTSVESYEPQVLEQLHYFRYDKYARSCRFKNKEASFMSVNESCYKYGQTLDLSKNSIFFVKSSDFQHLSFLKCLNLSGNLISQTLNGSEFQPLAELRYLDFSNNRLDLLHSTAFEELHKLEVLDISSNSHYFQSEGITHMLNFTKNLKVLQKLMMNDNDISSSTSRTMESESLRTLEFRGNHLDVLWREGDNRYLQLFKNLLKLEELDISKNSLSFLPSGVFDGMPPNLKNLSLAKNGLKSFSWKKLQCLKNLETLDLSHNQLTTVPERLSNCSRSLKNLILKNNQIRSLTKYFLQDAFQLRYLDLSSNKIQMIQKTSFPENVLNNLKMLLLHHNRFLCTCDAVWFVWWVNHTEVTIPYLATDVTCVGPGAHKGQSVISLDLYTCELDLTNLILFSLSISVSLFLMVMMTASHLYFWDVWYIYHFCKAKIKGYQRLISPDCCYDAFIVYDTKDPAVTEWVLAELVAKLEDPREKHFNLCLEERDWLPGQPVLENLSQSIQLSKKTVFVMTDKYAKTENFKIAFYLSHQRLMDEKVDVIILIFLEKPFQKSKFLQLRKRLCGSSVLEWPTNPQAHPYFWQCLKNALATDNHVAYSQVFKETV
Nature of the experiment: Agonistic effect on hTLR7, HEK-hTLR7-NF-κB-Luciferase reporter cells. Format: cell-based. Particulars: 16 hours. From the text:
Experimental Example 3: Agonistic Effect of the Compound of the Invention on hTLR7
In this test, the luciferase in HEK-hTLR7-NF-κB-reporter cells was detected to test the activating effect of the compound of the invention on TLR7 signaling pathway, so as to evaluate the specificity of the agonistic effect of the compound on NLRP3 pathway.
Reagents: DMEM (High glucose); FBS (fetal bovine serum) (Gibco); Bright-Glo™ Luciferase detection kit (Promega)
Cells: HEK-hTLR7-NF-κB-Luciferase gene cells (human TLR7 NF-κB-luciferase reporter gene cells) (Nanjing Cobioer)
1) The HEK-hTLR7-NF-κB-Luciferase cells in a logarithmic growth phase were trypsinized and resuspended in the medium to a concentration of 2×10^6 cells/mL. 50 μL/well of the cell resuspension was added to a 96-well plate such that the number of cells in each well was […]. An appropriate amount of 10 mM DMSO solution of the compound to be tested was taken and diluted to a concentration of 2× test concentration with the medium. 50 μL/well was added to the cells in the 96-well plate, and the 96-well plate was incubated in an incubator at 37° C. and 5% CO2 for 16 hours. The medium was DMEM (High glucose) containing 10% FBS.
2) After the cell incubation, 100 μL/well of Bright-Glo™ Luciferase detection reagent was added, and the mixture was incubated at room temperature for 5 minutes. Relative luciferase activity unit (RLU) was read using a microplate reader.
3) The EC50 of effect of the tested compound to stimulate hTLR7 was fitted by the GraphPad software log(agonist) vs. response—Variable slope four-parameter method.
Background: A reporter such as luciferase makes a cellular process visible.
`CC(=O)NCCNc1cc(N)nc2cc(-c3ccn[nH]3)sc12` [Compound 52] had a pEC50 below 4.00.

`Nc1cc(NCCCNC(=O)C2CC2)c2sc(-c3ccn[nH]3)cc2n1` [Compound 58] gave a pEC50 below 4.00.

In the case of `CCC(=O)N(C)CCNc1cc(N)nc2cc(-c3ccn[nH]3)sc12` [Compound 88, N-(2-((5-amino-2-(1H-pyrazol-5-yl)thieno[3,2-b]pyridin-7-yl)amino)ethyl)-N-methylpropionamide], the pEC50 is below 4.00.

The compound `CN1CC[C@H](Nc2cc(N)nc3cc(-c4ccn[nH]4)sc23)C1` [Compound 51, (S)—N^7-(1-methylpyrrolidin-3-yl)-2-(1H-pyrazol-5-yl)thieno[3,2-b]pyridine-5,7-diamine] gave a pEC50 below 4.00.

In the case of `Nc1cc(NC2CC(O)C2)c2sc(-c3ccn[nH]3)cc2n1` (centres unmarked) [Compound 40, 3-((5-amino-2-(1H-pyrazol-5-yl)thieno[3,2-b]pyridin-7-yl)amino)cyclobutanol], the pEC50 was below 4.00.

Turning to `Nc1cc(N2CC3CC(C2)N3C=O)c2sc(-c3ccn[nH]3)cc2n1` [Compound 179], the pEC50 was below 4.00.

In turn, `Nc1cc(N2CCOCC2)c2sc(-c3ccn[nH]3)cc2n1` [Compound 170] gave a pEC50 below 4.00.

Compound `Cn1cc(-c2cc3nc(N)cc(NCCCO)c3s2)cn1` [Compound 109, 3-((5-amino-2-(1-methyl-1H-pyrazol-4-yl)thieno[3,2-b]pyridin-7-yl)amino)-1-propanol] had a pEC50 below 4.00.

For the compound `Nc1cc(NCC2CC2)c2sc(-c3ccn[nH]3)cc2n1` [Compound 102, N^7-(cyclopropylmethyl)-2-(1H-pyrazol-5-yl)thieno[3,2-b]pyridine-5,7-diamine], the pEC50 is below 4.00.

As to `CO[C@H](C)CNc1cc(N)nc2cc(-c3ccn[nH]3)sc12` [Compound 101, (R)—N^7-(2-methoxypropyl)-2-(1H-pyrazol-5-yl)thieno[3,2-b]pyridine-5,7-diamine], the pEC50 is below 4.00.

`CC(=O)NCCCNc1cc(N)nc2cc(-c3ccn[nH]3)sc12` [Compound 53] gave a pEC50 below 4.00.

Compound `CN1CCC[C@@H](Nc2cc(N)nc3cc(-c4ccn[nH]4)sc23)C1` [Compound 104, (R)—N^7-(1-methylpiperidin-3-yl)-2-(1H-pyrazol-5-yl)thieno[3,2-b]pyridine-5,7-diamine] gave a pEC50 below 4.00.

As to `CN(CCNc1cc(N)nc2cc(-c3ccn[nH]3)sc12)C(=O)C1CC1` [Compound 75, N-(2-((5-amino-2-(1H-pyrazol-5-yl)thieno[3,2-b]pyridin-7-yl)amino)ethyl)-N-methylcyclopropionamide], the pEC50 is below 4.00.

In the case of `C[C@@H]1CN(CCNc2cc(N)nc3cc(-c4ccn[nH]4)sc23)C[C@H](C)O1` [Compound 117, N^7-(2-((2S,6R)-2,6-dimethylmorpholino)ethyl)-2-(1H-pyrazol-5-yl)thieno[3,2-b]pyridine-5,7-diamine], the pEC50 is below 4.00.

`C[C@@H]1COCCN1c1cc(N)nc2cc(-c3ccn[nH]3)sc12` [Compound 177] had a negative logarithm of the EC50 (pEC50) below 4.00.

`CC(=O)N(C)CCCNc1cc(N)nc2cc(-c3ccn[nH]3)sc12` [Compound 74, N-(3-((5-amino-2-(1H-pyrazol-5-yl)thieno[3,2-b]pyridin-7-yl)amino)propyl)-N-methylacetamide] gave a pEC50 below 4.00.

In turn, `Nc1cc(N2CCN(C3CCCCC3)CC2)c2sc(-c3ccn[nH]3)cc2n1` [Compound 167] had a pEC50 below 4.00.

Compound `CC(C)N1CCN(c2cc(N)nc3cc(-c4ccn[nH]4)sc23)CC1` [Compound 162] gave a pEC50 below 4.00.

`Nc1cc(N2CCN(C3CCCC3)CC2)c2sc(-c3ccn[nH]3)cc2n1` [Compound 160] showed a pEC50 below 4.00.

`Nc1cc(NC2CCOC2)c2sc(-c3ccn[nH]3)cc2n1` (centres unmarked) [Compound 61, 2-(1H-pyrazol-5-yl)-N^7-(tetrahydrofuran-3-yl)thieno[3,2-b]pyridine-5,7-diamine] had a pEC50 below 4.00.

In turn, `CS(=O)(=O)N1CCN(c2cc(N)nc3cc(-c4ccn[nH]4)sc23)CC1` [Compound 164] gave a pEC50 below 4.00.

With `Cc1c(-c2cc[nH]n2)sc2c(NCCCO)cc(N)nc12` [Compound 159], the pEC50 was below 4.00.

As to `CC1CN(CCNc2cc(N)nc3cc(-c4ccn[nH]4)sc23)CC(C)O1` (centres unmarked) [Compound 62], the pEC50 was below 4.00.

`Nc1cc(N2CCC(O)CC2)c2sc(-c3ccn[nH]3)cc2n1` [Compound 172] showed a pEC50 below 4.00.

As for `Nc1cc(N[C@@H]2CCC[C@@H]2O)c2sc(-c3ccn[nH]3)cc2n1` [Compound 96, (1S,2R)-2-((5-amino-2-(1H-pyrazol-5-yl)thieno[3,2-b]pyridin-7-yl)amino)cyclopentanol], the pEC50 is below 4.00.

Turning to `CC1(C)CN(c2cc(N)nc3cc(-c4ccn[nH]4)sc23)CCO1` [Compound 171], the pEC50 was below 4.00.

Consider `Nc1cc(NC2CCCC2)c2sc(-c3ccn[nH]3)cc2n1` [Compound 110, N^7-cyclopentyl-2-(1H-pyrazol-5-yl)thieno[3,2-b]pyridine-5,7-diamine], for which the pEC50 was below 4.00.

Compound `N#CC1(CNc2cc(N)nc3cc(-c4ccn[nH]4)sc23)CC1` [Compound 119] showed a pEC50 below 4.00.

`Nc1cc(N[C@H]2CC[C@H](O)C2)c2sc(-c3ccn[nH]3)cc2n1` [Compound 26, (1S,3S)-3-((5-amino-2-(1H-pyrazol-5-yl)thieno[3,2-b]pyridin-7-yl)amino)cyclopentanol] showed a pEC50 below 4.00.

The compound `Cc1c(-c2ccn[nH]2)sc2c(NC[C@@H]3CCCO3)cc(N)nc12` [Compound 157] showed a pEC50 below 4.00.

For the compound `Nc1cc(N2CCN(c3ccccc3)CC2)c2sc(-c3ccn[nH]3)cc2n1` [Compound 174], the negative logarithm of the EC50 (pEC50) was below 4.00.

The compound `CC[C@H](CO)Nc1cc(N)nc2cc(-c3ccn[nH]3)sc12` [Compound 95, (R)-2-((5-amino-2-(1H-pyrazol-5-yl)thieno[3,2-b]pyridin-7-yl)amino)butanol] gave a negative logarithm of the EC50 (pEC50) below 4.00.

`Nc1cc(N[C@H]2C[C@H]2CO)c2sc(-c3ccn[nH]3)cc2n1` [Compound 182s] gave a pEC50 below 4.00.

With `CC(=O)N(C)CCNc1cc(N)nc2cc(-c3ccn[nH]3)sc12` [Compound 73, N-(2-((5-amino-2-(1H-pyrazol-5-yl)thieno[3,2-b]pyridin-7-yl)amino)ethyl)-N-methylethanamide], the pEC50 was below 4.00.

`Nc1cc(NCCN2CCOCC2)c2sc(-c3ccn[nH]3)cc2n1` [Compound 55, N^7-(2-morpholinoethyl)-2-(1H-pyrazol-5-yl)thieno[3,2-b]pyridine-5,7-diamine]: the pEC50 is below 4.00.

Compound `Cc1c(-c2cc[nH]n2)sc2c(NCCN3CCOCC3)cc(N)nc12` [Compound 153] had a pEC50 below 4.00.

Compound `CC(=O)N1CCC(Nc2cc(N)nc3cc(-c4ccn[nH]4)sc23)CC1` [Compound 92, 1-(4-((5-amino-2-(1H-pyrazol-5-yl)thieno[3,2-b]pyridin-7-yl)amino)piperidin-1-yl)ethanone] had a pEC50 below 4.00.

In turn, `CN1CCN(c2cc(N)nc3cc(-c4ccn[nH]4)sc23)CC1` [Compound 161] gave a pEC50 below 4.00.

`C[C@H]1CN(c2cc(N)nc3cc(-c4ccn[nH]4)sc23)C[C@H](C)O1` [Compound 168] gave a pEC50 below 4.00.

Take `Nc1cc(NCc2ccccn2)c2sc(-c3ccn[nH]3)cc2n1` [Compound 59, 2-(1H-pyrazol-5-yl)-N^7-(pyridin-2-ylmethyl)thieno[3,2-b]pyridine-5,7-diamine]: the pEC50 was below 4.00.

In the case of `C[C@H](O)CNc1cc(N)nc2cc(-c3ccn[nH]3)sc12` [Compound 33], the pEC50 was below 4.00.
